This note sets out measurements from patent US20180022819A1, “COMPOSITIONS AND METHODS FOR COMBINATION THERAPY WITH PROSTATE-SPECIFIC MEMBRANE ANTIGEN BINDING PROTEINS” (APTEVO RESEARCH AND DEVELOPMENT LLC, priority 2015, published 2018).

Experiment [1] deals with LNCaP cells. Description: Effect of enzalutamide on redirected T-cell cytotoxicity in LNCaP cells expressing GFP (Example 1). The format is cell-based, human. To be noted: enzalutamide alone, […] nM in 0.2% DMSO, no T-cells, 4 days. Here is the method:
A titration of the anti-PSMA bispecific molecule TSC249 (protein sequence of SEQ ID NO: 78 in Table 3) was added to all sets of LNCaP cells in the amounts shown on the x-axis. T-cells and DMSO were added to the first set of LNCaP cells (leftmost set of bars). […] No T-cells and DMSO were added to the third set of LNCaP cells (set of bars second from the right). […] LNCaP cell growth (number of live cells) was measured by overall fluorescence and expressed as a fraction of live cells relative to the cells untreated with TSC249 on the y-axis.
LNCaP cells expressing GFP were cultured with donor T-cells at a 3:1 ratio of T-cells to LNCaP target cells for 4 days. […] DMSO alone was added to other samples. A titration of the anti-PSMA bispecific molecule TSC249 (protein sequence of SEQ ID NO: 78 in Table 3) was added to the cell cultures. LNCaP cell growth (number of live cells) was monitored by overall fluorescence.

Experiment [2] concerns 22Rv1 cells. Description: Flow cytometry: effect of prolonged enzalutamide treatment on PSMA expression level of 22Rv1 cells (Example 4). To be noted: 10 μM enzalutamide. The experiment is classed as cell-based, human. From the text: Mean fluorescence intensity (MFI) of bound molecules on live cells is shown on the y-axis. Concentration (nM) of the anti-PSMA monoclonal antibody 107-1A4 labeled with FITC is shown on the x-axis.
22Rv1 cells (PSMA+ at low level) were obtained from ATCC (Manassas, Va.) and cultured according to the ATCC protocol in RPMI-1640 media plus 10% FBS. […] All four cultures were harvested, stained for PSMA with FITC-labeled anti-PSMA monoclonal antibody 107-1A4 (Acris), and PSMA expression assayed by standard flow cytometry procedures. 22Rv1 cells were harvested with trypsin, and placed into FACS buffer (PBS+0.5% BSA [Equitech]+2 mM EDTA [Life Technologies]) at 1×10e6 per ml. FITC-107-1A4 was prepared at 36 nM in FACS buffer, and serially diluted 1:3, before adding 50 μl to 2×10e5 22Rv1 cells which had been pelleted in a 96 well plate. After 30 minute incubation on ice, cells were washed 3 times in FACS buffer, resuspended in FACS buffer, and data acquired on a BD LSRII flow cytometer. The sample files were analyzed using FlowJo software; the median fluorescence intensity (MFI) of the live population of 22Rv1 cells in each well was calculated after gating on live cells (forward vs side scatter). Median fluorescence intensities were fit to a 4-parameter logistic curve and graphed as concentration vs. MFI using GraphPad PRISM® software.

The subject of experiment [3] is LNCaP cells. Description: Growth inhibition of LNCaP-GFP cells with primary human T-cells, 4 days, with combination index analysis (Example 6). The format is cell-based. To be noted: enzalutamide plus TSC249 over a wide range of concentrations, T-cells, 4 days. On the procedure:
Additional procedures are described in Example 6. Percentage of live cells relative to an untreated control is shown on the y-axis.
Combination indices can indicate additive effects (CI=1), synergism (CI<1), or antagonism (CI>1).
Overall fluorescent signal from GFP enabled the quantitation of living LNCaP target cells in isolation from T-cells. […] TSC249 was added to have final concentrations of 125, 62.5, 31.25, 15.6, 7.8, 3.9, or 1.95 pM, or none. T-cells from several donors were used in replicate experiments, added at a ratio of 45,000 T-cells to 15,000 LNCaP cells per well.
After 4 days culture at 37° C. in 5% CO2, media was aspirated from wells and […] of 0.4% NP-40 was added to each well. Fluorescent signal from GFP in LNCaP cells adherent in wells was detected by a Spectramax plate reader, reading from the bottom of the wells. […]
The combination index theorem developed by Chou and Talalay was used to determine the interaction between the two compounds in their anti-cancer activity (see Chou, Cancer Res. 2010 Jan. 15; 70(2):440-6; Chou, Pharmacol Rev. 2006 September; 58(3):621-81). For each plate, relative fluorescence units (RFU) of all wells were normalized to the RFU of the well containing cells only, i.e., the proportion of living LNCaP cells in each well was expressed in relation to untreated LNCaP cells. […] Mean values were calculated from three replicates. […]

The subject of experiment [4] is 22Rv1 cells. Description: Chromium-51 release assay of redirected T-cell cytotoxicity against 22Rv1 cells (Example 5). The format is cell-based, human. The note with it: 22Rv1 cells resistant to enzalutamide, 10 μM enzalutamide pre-treatment. Here is the method:
FIG. 3 (top panel) is a graph showing the results of a chromium-51 release assay measuring the effectiveness of the anti-PSMA bispecific molecule TSC249 at inducing redirected T-cell cytotoxicity in 4 hours against enzalutamide-treated and untreated prostate cancer 22Rv1 cells. Percent specific lysis relative to a total lysis control is shown on the y-axis. Concentration (pM) of the anti-PSMA bispecific molecule TSC249 is shown on the x-axis.
To compare the sensitivity of enzalutamide-treated and untreated 22Rv1 prostate cancer cells to target-dependent T-cell cytotoxicity, a bispecific binding molecule targeting PSMA and CD3 was tested in a chromium (^51Cr) release assay using donor T-cells as effector cells. [See, e.g., US 2014/0161800 A1, which describes multispecific binding molecules that bind to prostate-specific membrane antigen (PSMA) and CD3.]
Cytotoxicity was assessed by a ^51Cr release assay. […]
Plates were incubated for 4 hours, spun at 225×g for 3 minutes, and 25 μL of supernatant was transferred from each well to the corresponding well of a 96-well LUMAPLATE® sample plate (Perkin Elmer). Sample plates were allowed to air dry in a chemical safety hood for 18 hours, and then radioactivity was read on a Topcount scintillation counter using a standard protocol. […]

Structures are written as SMILES.

For the molecule `CNC(=O)c1ccc(N2C(=S)N(c3ccc(C#N)c(C(F)(F)F)c3)C(=O)C2(C)C)cc1F` [enzalutamide], the “reduction of live cells” value in the experiment with LNCaP cells [1] is roughly 20%. For the same molecule, the “MFI from binding of FITC-107-1A4 to the 22Rv1 cells (PSMA expression)” value in the experiment with 22Rv1 cells [2] (one week of incubation, vs cells cultured without enzalutamide) is given as “increase in the MFI”; in the experiment on 22Rv1 cells [2] (three weeks of incubation), “no additional increases”; in the experiment with 22Rv1 cells [2] (two weeks of incubation), “additional increase in the MFI value”. Besides, in the experiment with LNCaP cells [3], the “live cell signal when combined with the other drug” value is reported as “further decrease in live cell signal”. Also, in the experiment with 22Rv1 cells [4], the “sensitivity of target cells to T-cell mediated lysis” value was “increasing the sensitivity”.
